Assay results from patent US12590099B2, “Inhibitors of histone deacetylase useful for the treatment or prevention of HIV infection” (Merck Sharp & Dohme LLC, priority 2018, dated 2026).
Where two headings read alike, the source gives them in different places.

Experiments:
Recombinant human HDAC2 = target: T1, Recombinant human HDAC2 (Homo sapiens, UniProt Q92769); assay: Human HDAC enzyme inhibitor Fluor-de-Lys assay, HDAC2; type: biochemical
T1 construct: Full length human HDAC2-FLAG was expressed in baculovirus infected Sf9 cells; FLAG (C); made in house; host or cells: Sf9 (baculovirus)
Method: (§1) Human HDAC Enzyme Inhibitor Fluor-De-Lys Assay
(§2) Recombinant human HDAC8 (BML-SE145-0100) and HDAC10 (BML-SE559-0050) enzymes, HDAC substrates BML-KI104 and BML-KI178, and HDAC developer solutions BML-KI105 and BML-KI176 were purchased from Enzo Life Sciences. […] HDAC inhibitor suberoylanilide hydroxamic acid (SAHA) was obtained from Indofine and trichostatin A (TSA) was obtained from Sigma-Aldrich.
(§3) Recombinant human HDAC1, HDAC2, and HDAC3/SMRT heterodimer were prepared by Merck Research Laboratories. […] The eluted protein was then passed over an anti-HDAC1 immunoaffinity column to remove any complexes containing HDAC1. […]
(§4) The histone deacetylase activities of HDAC1, HDAC2, HDAC3, HDAC6, and HDAC8 were measured in modified FLUOR DE LYS assays in 384-well format. In this assay, HDAC enzymes are initially incubated with an ε-acetyl (or -trifluoroacetyl)-L-lysine-containing substrate with a C-terminal amide having aminomethylcoumarin as the amine component. HDACs cleave the ε-acetyl group, rendering the resulting product susceptible to AMC cleavage by trypsin. The released AMC is then detected by its fluorescence.
(§5) The HDAC3/SMRT assay employed buffer B, consisting of 20 mM HEPES, pH 8.0, 1 mM MgCl2, 50 mM NaCl, 2.7 mM KCl, 0.05% BSA, 0.005% Tween 20, and 10 μM IP4. […] The HDAC8 assay employed buffer D, consisting of 20 mM HEPES, pH 8.0, 1 mM MgCl2, 100 mM NaCl, 20 mM KCl, 0.10% n-octyl-β-D-glucoside (Anatrace) and 0.05% BSA. All steps were performed at room temperature (23° C.). The assay was performed by pre-incubating serial dilutions of test compounds with the target HDAC prior to initiation with substrate. Each compound was titrated in a 10-point dose response, using a 1:3 fold dilution scheme, with 0.15 ul of solution added by ECH0555 to the plate, followed by the addition of 20 μl of the appropriate HDAC isoform diluted in appropriate assay buffer. […] Final conditions used for each assay were: 1. HDAC 1, 0.3 nM total enzyme, 20 μM substrate BML-KI104; 2. […] HDAC 3/SMRT, 0.3 nM total enzyme, 20 μM substrate BML-KI104; 4. […] The reactions were stopped and developed by addition of 30 ul of HDAC developer solution containing a saturating level of HDAC inhibitor as follows: 1.

KARN cells (Jurkat 2C4) = assay: cells; type: cell-based; conditions: Homo sapiens, Jurkat
Summary of the method: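 Luminescence (Steady-Glo, 10 min, room temperature) measured next day in KARN Jurkat 2C4 cells given compounds at up to 40 μM final with 0.4% DMSO. Percent activation normalised to DMSO (0%) and 2 μM SAHA (100%), fitted by 4-parameter curve.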

Recombinant human HDAC8 = target: T2, Recombinant human HDAC8 (Homo sapiens, UniProt Q9BY41); assay: Human HDAC enzyme inhibitor Fluor-de-Lys assay, HDAC8; type: biochemical
T2 construct: purchased Enzo Life Sciences BML-SE145-0100
T2 sequence (Q9BY41 1-377): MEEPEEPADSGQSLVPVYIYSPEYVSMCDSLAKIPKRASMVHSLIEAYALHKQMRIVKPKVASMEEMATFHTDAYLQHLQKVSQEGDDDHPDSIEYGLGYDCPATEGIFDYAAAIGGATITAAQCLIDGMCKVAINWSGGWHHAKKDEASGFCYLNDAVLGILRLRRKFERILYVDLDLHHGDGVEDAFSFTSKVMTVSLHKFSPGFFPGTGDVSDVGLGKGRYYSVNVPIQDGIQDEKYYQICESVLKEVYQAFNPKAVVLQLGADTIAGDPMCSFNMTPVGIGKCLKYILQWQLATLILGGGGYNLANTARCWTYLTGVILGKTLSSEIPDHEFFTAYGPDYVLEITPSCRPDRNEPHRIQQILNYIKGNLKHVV

HDAC6 = target: T3, HDAC6 (Homo sapiens, UniProt Q9UBN7); assay: Human HDAC enzyme inhibitor Fluor-de-Lys assay, HDAC6; type: biochemical
T3 sequence (Q9UBN7 1-1215): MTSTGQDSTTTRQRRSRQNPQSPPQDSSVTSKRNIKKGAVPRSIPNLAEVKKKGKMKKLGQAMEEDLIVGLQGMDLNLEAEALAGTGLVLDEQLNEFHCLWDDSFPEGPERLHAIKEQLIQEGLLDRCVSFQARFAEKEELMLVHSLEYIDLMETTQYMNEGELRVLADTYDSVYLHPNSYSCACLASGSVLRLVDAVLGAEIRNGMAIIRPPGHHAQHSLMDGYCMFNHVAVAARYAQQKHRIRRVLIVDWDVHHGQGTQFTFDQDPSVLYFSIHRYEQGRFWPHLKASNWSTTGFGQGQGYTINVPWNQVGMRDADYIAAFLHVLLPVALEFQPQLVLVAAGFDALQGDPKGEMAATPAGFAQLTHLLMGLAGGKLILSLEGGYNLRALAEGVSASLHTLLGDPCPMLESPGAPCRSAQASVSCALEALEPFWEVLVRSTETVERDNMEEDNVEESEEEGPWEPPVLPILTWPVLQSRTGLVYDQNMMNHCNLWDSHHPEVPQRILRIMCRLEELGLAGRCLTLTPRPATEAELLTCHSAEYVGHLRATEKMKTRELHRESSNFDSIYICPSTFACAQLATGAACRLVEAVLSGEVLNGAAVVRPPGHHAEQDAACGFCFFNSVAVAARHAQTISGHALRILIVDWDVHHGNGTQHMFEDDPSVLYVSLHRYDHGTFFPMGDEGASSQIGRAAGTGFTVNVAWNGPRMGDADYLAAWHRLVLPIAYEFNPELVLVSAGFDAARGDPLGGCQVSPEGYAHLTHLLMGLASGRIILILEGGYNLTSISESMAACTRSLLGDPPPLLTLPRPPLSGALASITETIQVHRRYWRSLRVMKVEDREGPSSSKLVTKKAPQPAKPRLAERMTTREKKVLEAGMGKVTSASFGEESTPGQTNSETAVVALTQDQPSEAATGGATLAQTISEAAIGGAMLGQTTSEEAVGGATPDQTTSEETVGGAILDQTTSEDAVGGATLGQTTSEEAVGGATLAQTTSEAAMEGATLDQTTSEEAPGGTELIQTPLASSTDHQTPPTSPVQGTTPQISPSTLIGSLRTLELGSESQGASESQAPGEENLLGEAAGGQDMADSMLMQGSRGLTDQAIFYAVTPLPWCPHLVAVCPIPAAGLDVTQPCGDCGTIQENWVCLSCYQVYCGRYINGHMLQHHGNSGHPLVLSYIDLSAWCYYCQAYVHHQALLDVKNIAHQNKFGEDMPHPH

[1] = target: T4, Recombinant human HDAC3/SMRT heterodimer (Homo sapiens, UniProt O15379); assay: Human HDAC enzyme inhibitor Fluor-de-Lys assay, HDAC3/SMRT; type: biochemical; conditions: recombinant human HDAC3/SMRT, Fluor-de-Lys assay
T4 construct: FLAG (C); made in house

Recombinant human HDAC1 = target: T5, Recombinant human HDAC1 (Homo sapiens, UniProt Q13547); assay: Human HDAC enzyme inhibitor Fluor-de-Lys assay, HDAC1; type: biochemical; conditions: recombinant human HDAC1, Fluor-de-Lys assay
T5 construct: FLAG (C); made in house
Method: as §1, §2, §3, §4, §5

[2] = recombinant human HDAC2, Fluor-de-Lys assay
[3] = read-out: Karn EC50 (nM) 0.1% NHS, 0.1% normal human serum, luciferase induction, 100% = 2 μM SAHA
[4] = read-out: Karn EC50 (nM) 5% NHS, 5% normal human serum, luciferase induction, 100% = 2 μM SAHA
[5] = recombinant human HDAC8, Fluor-de-Lys assay

T4 sequence (O15379 whole entry): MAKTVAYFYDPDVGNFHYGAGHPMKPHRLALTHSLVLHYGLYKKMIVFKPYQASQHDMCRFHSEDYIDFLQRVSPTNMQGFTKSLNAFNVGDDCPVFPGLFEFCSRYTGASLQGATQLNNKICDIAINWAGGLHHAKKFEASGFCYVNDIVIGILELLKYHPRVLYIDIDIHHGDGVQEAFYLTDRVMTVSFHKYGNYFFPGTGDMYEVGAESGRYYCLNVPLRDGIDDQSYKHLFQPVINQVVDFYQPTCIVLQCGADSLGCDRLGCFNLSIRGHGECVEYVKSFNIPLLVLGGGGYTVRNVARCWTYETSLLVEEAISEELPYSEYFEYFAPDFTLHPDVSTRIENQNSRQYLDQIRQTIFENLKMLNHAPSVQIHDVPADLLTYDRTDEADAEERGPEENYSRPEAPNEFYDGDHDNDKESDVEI
T4 sequence (Q9Y618 1-899 partner limits assumed): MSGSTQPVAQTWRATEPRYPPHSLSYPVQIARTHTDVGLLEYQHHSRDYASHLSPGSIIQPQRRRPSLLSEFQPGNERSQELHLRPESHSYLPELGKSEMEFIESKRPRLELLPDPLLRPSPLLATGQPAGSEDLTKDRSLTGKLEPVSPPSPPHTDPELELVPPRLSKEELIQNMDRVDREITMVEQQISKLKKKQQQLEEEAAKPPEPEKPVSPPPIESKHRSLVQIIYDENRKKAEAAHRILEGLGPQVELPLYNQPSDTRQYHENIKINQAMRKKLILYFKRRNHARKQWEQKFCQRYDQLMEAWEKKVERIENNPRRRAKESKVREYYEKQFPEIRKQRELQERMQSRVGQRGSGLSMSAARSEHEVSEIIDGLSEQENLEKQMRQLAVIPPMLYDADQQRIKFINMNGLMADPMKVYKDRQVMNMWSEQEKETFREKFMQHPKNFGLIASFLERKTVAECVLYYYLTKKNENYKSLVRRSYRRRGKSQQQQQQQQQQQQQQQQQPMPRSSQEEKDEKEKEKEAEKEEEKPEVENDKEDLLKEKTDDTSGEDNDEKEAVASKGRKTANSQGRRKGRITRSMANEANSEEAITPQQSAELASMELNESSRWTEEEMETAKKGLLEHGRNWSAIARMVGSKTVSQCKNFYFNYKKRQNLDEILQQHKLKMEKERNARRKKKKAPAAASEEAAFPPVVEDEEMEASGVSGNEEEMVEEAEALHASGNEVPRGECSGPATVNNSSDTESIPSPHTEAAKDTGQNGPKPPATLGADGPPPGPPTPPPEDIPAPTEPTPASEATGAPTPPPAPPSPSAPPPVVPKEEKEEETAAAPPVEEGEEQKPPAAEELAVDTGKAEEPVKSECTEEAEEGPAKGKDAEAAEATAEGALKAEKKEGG
T5 sequence (Q13547 whole entry): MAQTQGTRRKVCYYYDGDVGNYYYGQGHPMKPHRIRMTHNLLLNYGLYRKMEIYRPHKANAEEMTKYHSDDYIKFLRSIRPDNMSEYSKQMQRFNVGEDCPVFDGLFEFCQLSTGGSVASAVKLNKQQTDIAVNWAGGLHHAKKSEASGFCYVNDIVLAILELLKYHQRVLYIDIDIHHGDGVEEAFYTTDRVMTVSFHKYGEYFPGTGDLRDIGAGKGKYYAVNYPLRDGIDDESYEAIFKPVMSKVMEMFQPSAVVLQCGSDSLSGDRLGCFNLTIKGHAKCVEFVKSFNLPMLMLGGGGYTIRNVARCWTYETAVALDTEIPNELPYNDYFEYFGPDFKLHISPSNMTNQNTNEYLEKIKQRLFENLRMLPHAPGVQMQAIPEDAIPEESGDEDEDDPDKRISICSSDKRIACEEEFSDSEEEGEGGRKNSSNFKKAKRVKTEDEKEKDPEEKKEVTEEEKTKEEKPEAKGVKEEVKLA
T1 sequence (Q92769 whole entry): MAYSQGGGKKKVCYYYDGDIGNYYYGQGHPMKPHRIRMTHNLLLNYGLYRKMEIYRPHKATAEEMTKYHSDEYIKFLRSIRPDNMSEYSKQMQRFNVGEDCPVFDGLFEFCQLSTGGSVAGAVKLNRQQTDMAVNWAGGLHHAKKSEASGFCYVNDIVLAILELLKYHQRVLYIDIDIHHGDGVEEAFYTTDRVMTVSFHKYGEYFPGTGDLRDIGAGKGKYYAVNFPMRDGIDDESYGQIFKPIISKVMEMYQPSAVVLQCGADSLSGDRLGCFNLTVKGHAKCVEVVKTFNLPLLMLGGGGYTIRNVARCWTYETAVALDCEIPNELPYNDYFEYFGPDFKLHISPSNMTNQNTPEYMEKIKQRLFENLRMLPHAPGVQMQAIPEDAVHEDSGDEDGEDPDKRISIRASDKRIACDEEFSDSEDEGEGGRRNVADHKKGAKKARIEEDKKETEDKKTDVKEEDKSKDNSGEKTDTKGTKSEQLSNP

| SMILES | IC50 (Recombinant human HDAC2) | EC50 (KARN cells (Jurkat 2C4); read-out: Karn EC50 (nM) 0.1% NHS, 0.1% normal human serum) | EC50 (KARN cells (Jurkat 2C4); read-out: Karn EC50 (nM) 5% NHS, 5% normal human serum) | IC50 (Recombinant human HDAC8) | IC50 (HDAC6) | IC50 (Recombinant human HDAC2; [2]) | EC50 (KARN cells (Jurkat 2C4); [3]) | EC50 (KARN cells (Jurkat 2C4); [4]) | IC50 [1] | IC50 (Recombinant human HDAC1) | IC50 (Recombinant human HDAC8; [5]) | IC50 (HDAC6; HDAC6, Fluor-de-Lys assay) |
| --- | --- | --- | --- | --- | --- | --- | --- | --- | --- | --- | --- | --- |
| CCC(=O)CCCCC[C@H](NC(=O)[C@H]1CC12CCN(CC)CC2)c1ncc(-c2cc3cccnc3cc2OC)o1 [Compound 169] | 2.2 nM | 91 nM | 78 nM | 7580 nM | 83 nM |  |  |  |  |  |  |  |
| CCC(=O)CCCCC[C@H](NC(=O)C1CC12CCN(CC)CC2)c1nc(-c2ccc(F)cc2)[nH]c1-c1cccc(OC)c1 (some centres unmarked) [Compound 246] |  |  |  |  |  | 769 nM | 1940 nM | 3770 nM | 155 nM | 177 nM |  |  |
| CCC(=O)CCCCC[C@H](NC(=O)[C@H]1CC12CCN(C)CC2)c1ncc(-c2ccn3ncnc3c2)[nH]1 [Compound 267] |  |  |  |  |  | 170 nM |  |  |  | 46.7 nM | 11600 nM | 6370 nM |
| CCC(=O)CCCCC[C@H](NC(=O)C1NC(=O)CC12CN(C(=O)OC(C)(C)C)C2)c1nnc(-c2cc3ccccc3nc2OC)o1 (some centres unmarked) [Compound 302] |  |  |  |  |  | 121 nM | 4460 nM | 7430 nM | 37.6 nM | 49.4 nM | > 45000 nM |  |
| CCC(=O)CCCCC[C@H](NC(=O)C1NC(=O)CC12CNC2)c1nnc(-c2cc3ccccc3nc2OC)o1 (some centres unmarked) [Compound 304] |  |  |  |  |  | 8 nM | 17300 nM |  | 3.23 nM | 3.59 nM | 20800 nM |  |
| CCC(=O)CCCCC[C@H](NC(=O)C1NC(=O)CC12CN(C)C2)c1nnc(-c2cc3ccccc3nc2OC)o1 (some centres unmarked) [Compound 309] |  |  |  |  |  | 19.3 nM | 1350 nM | 1920 nM | 7.19 nM | 6.91 nM | 24000 nM |  |
| CCC(=O)CCCCC[C@H](NC(=O)[C@H]1CC12CCN(CCC(F)(F)F)CC2)c1ncc(-c2cc3ccccc3nc2OC)[nH]1 [Compound 332] |  |  |  |  |  |  | 78 nM | 343 nM |  |  | 14100 nM | 745 nM |
| CCC(=O)CCCCC[C@H](NC(=O)[C@H]1CC12CCN(CC(F)(F)F)CC2)c1ncc(-c2cc3ccccc3nc2OC)[nH]1 [Compound 333] |  |  |  |  |  |  | 113 nM | 719 nM |  |  | 6090 nM | 1110 nM |
| CCC(=O)CCCCC[C@H](NC(=O)[C@H]1CC12CCN(CC(C)C)CC2)c1ncc(-c2cc3ccccc3nc2OC)[nH]1 [Compound 335] |  |  |  |  |  |  | 31 nM | 63 nM |  |  | 3280 nM | 329 nM |
| CCC(=O)CCCCC[C@H](NC(=O)[C@H]1CC12CCN(CC1CC1)CC2)c1ncc(-c2cc3ccccc3nc2OC)[nH]1 [Compound 336] |  |  |  |  |  |  | 16 nM | 30 nM |  |  | 3130 nM | 189 nM |
| CCC(=O)CCCCC[C@H](NC(=O)[C@H]1CC12CCN(C(C)C)CC2)c1ncc(-c2cc3ccccc3nc2OC)[nH]1 [Compound 337] |  |  |  |  |  |  | 32 nM | 57 nM |  |  | 5660 nM | 160 nM |
| CCC(=O)CCCCC[C@H](NC(=O)[C@H]1CCC12CCN(CC)CC2)c1ncc(-c2cc3ccccc3nc2OC)[nH]1 [Compound 338] |  |  |  |  |  |  | 44 nM | 111 nM |  |  | 2930 nM | 405 nM |
| CCC(=O)CCCCC[C@H](NC(=O)[C@H]1CC12CCN(CC)CC2)c1ncc(-c2ccc3cccnc3c2)[nH]1 [Compound 344] |  |  |  |  |  |  | 37 nM | 54 nM |  |  | 3420 nM | 862 nM |
| CCC(=O)CCCCC[C@H](NC(=O)[C@H]1CC12CCN(CC)CC2)c1ncc(-c2ccc3ncccc3c2)[nH]1 [Compound 346] |  |  |  |  |  |  | 46 nM | 57 nM |  |  | 3160 nM | 545 nM |
| CCC(=O)CCCCC[C@H](NC(=O)[C@H]1CC12CCN(C)CC2)c1ncc(-c2ccc3cnc(Cl)cc3c2)[nH]1 [Compound 351] |  |  |  |  |  | 7.1 nM |  |  | 1.32 nM | 1.57 nM | 5830 nM | 1470 nM |
| CCC(=O)CCCCC[C@H](NC(=O)[C@H]1CC[C@]2(CC1)OC(=O)c1ncccc12)c1ncc(-c2ccccc2)[nH]1 [Compound 377] |  |  |  |  |  | 232 nM |  |  | 6.9 nM | 47.1 nM | 3010 nM | 8290 nM |
| CCC(=O)CCCCC[C@H](NC(=O)[C@H]1CC12CCN(CC1CC1)CC2)c1ncc(-c2cc3cccnc3cc2OC)[nH]1 [Compound 394] |  |  |  |  |  |  | 18 nM | 24 nM |  |  | > 900 nM | 76 nM |
